Assay results taken from patent publication US20130281413A1, “Salicylate Conjugates Useful For Treating Metabolic Disorders” (Genmedica Therapeutics SL, priority 2008, published 2013).

Columns and labels:
β-cells [1] = test: Protection of β-cell failure and prevention of hyperglycemia in streptozotocin treated rats; assay type: in vivo
β-cells [2] = test: Preserving β-cell function of mice challenged by one shot of streptozotocin; assay type: in vivo; conditions: oral or intraperitoneal, prior and during 5 days following streptozotocin 45 mg/kg i.p.
Procedure: Further, compounds of the present invention, such as Salnacedin, are tested for their efficiency at preserving β-cell function of mice challenged by one shot of streptozotocin (45 mg/kg i.p.).

[3] = test system: streptozotocin-induced diabetic mice; test: Type 1 diabetic model in mice (streptozotocin 120 mg/kg i.p.); assay type: in vivo; conditions: 4 weeks
Procedure: Mice induced by streptozotocin injection (120 mg/kg i.p.) are treated for 4 weeks with 250 mg/kg/day (oral or i.p.) of a compound of the present invention, such as […]. At the end of the 4 week treatment, fasting glucose, fructosamine, triglycerides and cholesterol are measured.

ob/ob and db/db mice = test: Restoration of insulin sensibility in ob/ob and db/db mice; assay type: in vivo
Procedure: Eight week old ob/ob and db/db mice are treated for 3 to 4 weeks with a daily dose of 250 mg/kg of a compound of the present invention, such as […], by oral gavage or with drug mix with food or subcutaneously. […] Additionally, the levels of insulin are measured 15 min following the glucose loading to determine the capacity of the β-cells to secrete insulin.

[4] = test system: Zucker diabetic fatty (ZDF) rats; test: Restoration of insulin sensitivity in Zucker diabetic fatty (ZDF) rats; assay type: in vivo; conditions: 250 mg/kg oral daily
Procedure: To assess whether conjugates comprising an antioxidant agent and an inflammatory agent would prevent glucose toxicity and progression of diabetes mellitus associated with β-cell failure overtime, we assessed whether compounds of Formula (I), including salnacedin, would alter the development of the disease in this Type 2 diabetic animal model.
Zucker diabetic rats from 6 to 12 weeks of age are treated daily with an oral dose of 250 mg/kg of a compound of the present invention, such as salnacedin.

β-cells [5] = test: In vivo beta cell protection model (alloxan), FIG. 6; set-up: species or system cd-1 mice; conditions: for effect of alloxan on β-cells: lysine salts, single i.p. administration 1 hour before alloxan 200 mg/kg
Procedure: Beta-cell destruction was induced in cd-1 mice after 3 hours of fasting by a single intraperitoneal injection of a freshly prepared solution of alloxan 200 mg/kg (Sigma-Aldrich, San Luis, Mo.) that was dissolved in NaCl 0.9%. Single intraperitoneal drug administration was 1 hour before the alloxan administration. Animals received the different drugs dissolved in PBS pH 7.4, and the animals that not received any drug were injected with the vehicle, in this case PBS pH 7.4. At the end of the treatment, at day 4, animals were killed and the plasma collected and kept at −20° C. until used.
The circulating glucose concentration was determined by a rapid glucose analyzer (Accu-Chek Aviva; Roche). Plasma triglycerides and non esterified fatty acids were determined with standard colorimetric methods (Biosystems, Barcelona, Spain, and Wako Chemicals, Neuss, Germany, respectively). Plasma insulin concentration was determined by enzyme-linked immunosorbent assay method (CrystalChem, Downers Grove, Ill.).

[6] = test system: animal models of diabetes; test: Summary of effects in different animal models of diabetes; assay type: in vivo
[7] = test system: Zucker fa/fa rats or ob/ob mice; conditions: 120 mg/kg/day subcutaneous infusion, 3-4 weeks; cited from earlier work
human diabetic patients = conditions: 4.5 g/day; cited from earlier work
IKKβ = conditions: diabetic animals; cited from earlier work
[8] = 250 mg/kg/day oral or i.p., vs control group

CC(=O)N[C@@H](CSC(=O)c1ccccc1O)C(=O)O [Example 1, (R)-2-acetamido-3-(2-hydroxybenzoylthio)propanoic acid]
blood glucose level (β-cells [1]; pretreated rats vs control group, associated with preserved capacity of β-cell to secrete insulin): lower than the control group
β-cell preservation and development of hyperglycemia (β-cells [1]; rats, ~250 mg/kg orally and/or intraperitoneally prior to streptozotocin 45 mg/kg i.p., followed by 4 additional treatment days): preserve β-cells, reducing the development of hyperglycemia
levels of 8-hydroxy-deoxyguanosine (8 OhdG) and malondialdehyde+4-hydroxy-2-nonenal (4HNE) (β-cells [1]; streptozotocin model, markers of oxidative stress and lipid peroxidation in the blood): reduce
β-cell protection from oxidative stress and development of hyperglycemia over time (β-cells [2]): protects β-cells from oxidative stress and reduces the development of hyperglycemia over time compared to control
cholesterol [3, 8]: reduced in comparison to control group
fasting glucose [3, 8]: reduced in comparison to control group
fructosamine [3, 8]: reduced in comparison to control group
triglycerides [3, 8]: reduced in comparison to control group
reduction in plasmatic parameters compared with a salicylate or an antioxidant alone ([3]; 250 mg/kg/day, vs salicylic acid alone or N-acetylcysteine alone): more pronounced
fasting blood glucose values (ob/ob and db/db mice; 250 mg/kg daily, 3 to 4 weeks, oral gavage, in food or subcutaneously, vs control or salicylate/antioxidant alone): reduced compared to the control group
insulin sensitivity (ob/ob and db/db mice; evidenced by a sustained and pronounced glucose lowering effect): improve insulin sensitivity
capacity of the β-cells to secrete insulin (ob/ob and db/db mice; insulin measured 15 min following the glucose loading, vs control): greater
oxidative stress and lipid peroxidation (8 OhdG, malondialdehyde, 4HNE) (ob/ob and db/db mice; level of associated biomarkers): a reduction in oxidative stress and lipid peroxidation
levels of glutathione (GSH) (ob/ob and db/db mice; liver and kidney): restored
inflammatory cytokines TNFα and IL-6 (ob/ob and db/db mice; mouse, in vivo): reduced
glucose tolerance test (OGTT or IPTT): elevation of glucose levels (ob/ob and db/db mice; vs non treated animal): a reduction in the elevation of glucose levels during the test
Hb1Ac ([4]; 6 weeks, vs control group): reduced in comparison to the control group
cholesterol ([4]; 6 weeks, vs control group): reduced in comparison to the control group
fasting glucose ([4]; 6 weeks, vs control group): reduced in comparison to the control group
fructosamine ([4]; 6 weeks, vs control group): reduced in comparison to the control group
triglycerides ([4]; 6 weeks, vs control group): reduced in comparison to the control group
glucose tolerance test ([4]; from 6 to 12 weeks of age): improves the glucose tolerance test
insulin secretion from β-cells ([4]; from 6 to 12 weeks of age): preserves insulin secretion from β-cells
worsening of hyperglycemia ([4]; from 6 to 12 weeks of age): partially prevents the worsening of hyperglycemia
insulin levels (β-cells [5]; alloxan-treated animals, indicates pancreatic beta cell protection): preservation of insulin levels
hypolipidemic, anti-diabetic and antioxidant effects [6]: strong hypolipidemic and anti-diabetic effects as well as antioxidant properties

CC(=O)NC(CSC(=O)c1ccccc1O)C(=O)O (stereo not shown) [GMC-1.3a, salicylic acid-(L) N-acetyl cysteine]
effect of alloxan on β-cells (β-cells [5]): reduce the effect of alloxan on β-cells

CC(=O)N[C@@H](CSC(=O)c1cc(-c2ccc(F)cc2F)ccc1O)C(=O)O [GMC-1.3b, diflunisal-(L) N-acetyl cysteine]
effect of alloxan on β-cells (β-cells [5]): reduce the effect of alloxan on β-cells

O=C(O)c1ccccc1O [Salicylate]
fasting blood glucose [7]: reduction in fasting blood glucose
glucose tolerance [7]: glucose tolerance improvement

O=C(Oc1ccccc1C(=O)O)c1ccccc1O [salsalate]
effects in human diabetic patients (human diabetic patients): Beneficial effects
side effects, such as tinnitus, enhanced by (human diabetic patients): 66%
IKKβ activity (IKKβ): decrease in IKKβ activity
insulin sensitivity (IKKβ): improvement in insulin sensitivity
